This data set in a line: in vitro. The following applies: human, hela cells, % viability.

Each structure is given as a SMILES string.

As a reminder, the viability is a read-out of living cells in per cent, often relative to untreated cells. With `COc1cc2nc(NC(=O)c3ccccc3)sc2cc1OC` [CBK287701], the viability at 28.5 h, 10 µM turned out to be 82.3%.

In the case of `COc1ccc(OCCN2CCC3(CC2)CN(C(=O)CO)c2ccccc23)cc1` [CBK131512], the viability at 28.5 h, 10 µM was determined as 103%.

Consider `O=S(=O)(O)CCCSc1nc2ccccc2s1` [CBK260900N], for which the viability at 28.5 h, 10 µM stood at 100%.

On to `CC(C(=O)N1CCC(C(=O)c2nccs2)CC1)c1ccccc1` (stereo not shown) [CBK284163], for which the viability at 28.5 h, 10 µM was determined as 80.8%.

Regarding `COc1ccc(C(=O)CCCN2CCc3c([nH]c4ccc(OC)cc34)C2)cc1` [CBK083515T], the viability at 28.5 h, 10 µM was determined as 101%.

For the compound `O=C1CC(c2ccccc2)c2c(c3ccccc3[nH]c2=O)O1` (stereo not shown) [CBK288237], the viability at 28.5 h, 10 µM turned out to be 112%.

For the compound `O=C(c1cc(Cl)c[nH]1)N1CCN(Cc2cc(=O)n3ccsc3n2)CC1` [CBK306313], the viability at 28.5 h, 10 µM was found to be 92.9%.

With `CCCS(=O)(=O)N1CCN(C(=O)COc2ccc3ccccc3c2)CC1` [CBK264290], the viability at 28.5 h, 10 µM worked out at 95.4%.

As for `Cc1ccc(F)c(S(=O)(=O)NC(C)Cc2ccccn2)c1` (stereo not shown) [CBK281427], the viability at 28.5 h, 10 µM came out at 90.5%.

Turning to `NS(=O)(=O)c1ccc(CNC2CC(=O)N(CCc3ccccc3)C2=O)cc1` (stereo not shown) [CBK262464], the viability at 28.5 h, 10 µM turned out to be 91.7%.

As to `O=C(O)c1ccc(CNCc2ccc(-c3ccc(Cl)cc3)o2)cc1` [CBK269619C], the viability at 28.5 h, 10 µM came to 94.7%.

For `CCC(C)Nc1nc(SCC(=O)OC)nc(N(C)C)n1` (stereo not shown) [CBK269780], the viability at 28.5 h, 10 µM came to 95.2%.

Turning to `O=C(Nc1ccc2ncccc2c1)c1ccc(Cl)cc1Cl` [CBK159793], the viability at 28.5 h, 10 µM is 96.5%.

In the case of `O=S(=O)(Nc1nc(-c2sccc2Cl)cs1)c1cc(Br)c(Cl)s1` [CBK200030], the viability at 28.5 h, 10 µM worked out at 107%.

On to `Cn1ncc(N2CCC(CNC(=O)c3ccccc3Cl)C2)cc1=O` (stereo not shown) [CBK306747], for which the viability at 28.5 h, 10 µM amounted to 95.2%.

`COc1ccccc1C(=O)O/N=C1/CCCc2c1ccc(OC)c2[N+](=O)[O-]` [CBK263555]: the viability at 28.5 h, 10 µM came out at 102%.

As for `CCc1cc(C(=O)N2CCC(Oc3ccc(F)cc3)CC2)n(C)n1` [CBK282034], the viability at 28.5 h, 10 µM turned out to be 86.5%.

Turning to `Nc1ncc(-c2cc(C(F)(F)F)cc(C(F)(F)F)c2)nc1N1CCC[C@@H]1CO` [CBK063501], the viability at 28.5 h, 10 µM is 93.3%.

Turning to `Cc1cc(NS(=O)(=O)c2cccc(Cl)c2C)on1` [CBK022499], the viability at 28.5 h, 10 µM came out at 92%.

In the case of `CCN1CCN(c2ccc(NS(=O)(=O)c3ccccc3)c3ccccc23)CC1` [CBK200011C], the viability at 28.5 h, 10 µM stood at 88.3%.

Regarding `Cc1cc(Br)ccc1C(=O)Nc1ccc2ncccc2c1` [CBK159814], the viability at 28.5 h, 10 µM worked out at 92.1%.

Take `O=C(O)CSCC(=O)N(Cc1ccccc1)c1nc(-c2ccccc2)c(-c2ccccc2)s1` [CBK296138]: the viability at 28.5 h, 10 µM came to 97.5%.

Turning to `Cc1csc(C(Cc2ccsc2)NC(=O)C2CCOCC2)n1` (stereo not shown) [CBK285047], the viability at 28.5 h, 10 µM was found to be 102%.

As for `O=C(O)CCC(=O)Nc1cc(C(F)(F)F)ccc1N1CCCC1` [CBK057434], the viability at 28.5 h, 10 µM was found to be 94.2%.

As to `O=C(CCc1nc2sc3c(c2c(=O)[nH]1)CCCC3)N1CCCC1` [CBK306069], the viability at 28.5 h, 10 µM was determined as 90.8%.

As for `COc1ccc(-c2cc(CC3(NCc4ccccc4O)COC3)no2)cc1` [CBK289697], the viability at 28.5 h, 10 µM was determined as 91.3%.

Take `O=C(O)C1CCN(C2C(=O)Nc3ccc(Cl)cc3C2c2ccccc2)CC1` (stereo not shown) [CBK287210]: the viability at 28.5 h, 10 µM came out at 94.4%.

Take `O=C(COc1ccc2oc3ccccc3c2c1)c1ccccc1` [CBK268931]: the viability at 28.5 h, 10 µM worked out at 99.5%.

`CC(NC(=O)/C=C\C(=O)O)c1ccc2c(c1)OCO2` (stereo not shown) [CBK286996]: the viability at 28.5 h, 10 µM turned out to be 93.3%.

As for `CCc1nc2c(N3CCC(n4nc(C)cc4C)C3)ncnc2o1` (stereo not shown) [CBK306785], the viability at 28.5 h, 10 µM worked out at 111%.

As to `Cc1nnc(SCC(=O)N/N=C/c2ccncc2)n1-c1ccccc1` [CBK262762], the viability at 28.5 h, 10 µM is 85.4%.

Turning to `Cc1nc2c(OCc3ccc(C#N)cc3)cccn2c1N(C)Cc1cccs1` [CBK147336], the viability at 28.5 h, 10 µM worked out at 92%.

Regarding `COC(=O)c1cccc2c1CCCN2Cc1nnc(C2CCC2)o1` [CBK304072], the viability at 28.5 h, 10 µM amounted to 105%.

Consider `CN1CCN(C(=O)C2CCCN(S(=O)(=O)c3ccc(Br)cc3)C2)CC1` (stereo not shown) [CBK269006], for which the viability at 28.5 h, 10 µM came to 107%.

Turning to `CCn1cc(C(=O)O)c(=O)c2cc(F)c(N3CCN(C(=S)Nc4ccc5c(c4)OCO5)CC3)cc21` [CBK268027], the viability at 28.5 h, 10 µM was found to be 83.1%.

On to `CCC(NC(=O)CCc1cc2n(n1)CCNC2)c1cn2cccnc2n1` (stereo not shown) [CBK307090], for which the viability at 28.5 h, 10 µM is 87.1%.

On to `COc1ccc(C(=O)Nc2c(C)noc2C)c(OC)n1` [CBK200300], for which the viability at 28.5 h, 10 µM came out at 104%.

For `CC(=O)N[C@H]1CC[C@]2(C)CCC([C@H](C)C(=O)NCCN3CCOCC3)[C@H](O)[C@H]2[C@@H]1C` (stereo partly shown) [CBK289434], the viability at 28.5 h, 10 µM was 114%.

Consider `CCN1CCCC2(CCN(C(=O)c3ccoc3)C2)C1` (stereo not shown) [CBK132832], for which the viability at 28.5 h, 10 µM is 97.7%.

Consider `O=C1NC(=O)N(Cc2ccco2)C(=O)/C1=C\c1cn(Cc2ccccc2)c2ccccc12` [CBK263939], for which the viability at 28.5 h, 10 µM (bulk resorufin, single well) is 88.5%.

As to `O=S(=O)(NCC(Nc1cccc2ccccc12)c1ccccc1)c1ccc(Cl)cc1` (stereo not shown) [CBK264087], the viability at 28.5 h, 10 µM came to 90.3%.

Turning to `O=C(Cc1coc2ccc3ccccc3c12)NNC(=O)c1ccccc1[N+](=O)[O-]` [CBK268763], the viability at 28.5 h, 10 µM stood at 90.6%.

As to `CS(=O)(=O)N/N=C/c1cccc(Br)c1` [CBK026427], the viability at 28.5 h, 10 µM is 92.5%.

Consider `Cn1cncc1CN(CCCn1ccnc1)Cc1ccccc1Cl` [CBK283041], for which the viability at 28.5 h, 10 µM was determined as 84.8%.

Consider `CC(=O)c1ccc(NS(=O)(=O)c2cc(C(=O)Nc3ccccc3C(=O)O)ccc2Br)cc1` [CBK263203], for which the viability at 28.5 h, 10 µM came out at 97.2%.

As to `Fc1ccc(CNc2cncc(-c3cc4ccccc4o3)n2)cc1` [CBK066005], the viability at 28.5 h, 10 µM worked out at 122%.

`c1cncc(-c2cncc(NCC3CCOCC3)n2)c1` [CBK037195]: the viability at 28.5 h, 10 µM turned out to be 92.7%.

With `C[C@@H]1CN[C@@H](C)CN1Cc1cc(NS(=O)(=O)c2ccccc2Cl)cc2ccoc12` [CBK107211T], the viability at 28.5 h, 10 µM came out at 98.6%.

Regarding `Cc1cc(C)nc(NS(=O)(=O)c2ccc(OC(F)(F)F)cc2)c1` [CBK044711], the viability at 28.5 h, 10 µM turned out to be 90.7%.

For the compound `CC1CN(C(=O)/C=C/C(=O)O)c2ccccc2NC1=O` (stereo not shown) [CBK286618], the viability at 28.5 h, 10 µM was determined as 108%.

For the compound `COc1cccc(/C=N/NC(=O)C(=O)NCc2ccccn2)c1O` [CBK262097], the viability at 28.5 h, 10 µM was determined as 93.5%.

Regarding `CCN(C(=O)Cc1cc(OC)ccc1Br)c1cccnc1` [CBK305318], the viability at 28.5 h, 10 µM stood at 97.7%.

Regarding `CCC(CN1CCN(C)CC1)NC(=O)Cc1ccc2c(c1)CCC2` (stereo not shown) [CBK282784], the viability at 28.5 h, 10 µM was 92.2%.

In the case of `CN1CCN(NC(=O)c2cccc(COc3ccccc3Cl)c2)CC1` [CBK265765], the viability at 28.5 h, 10 µM stood at 99.2%.

For the compound `COc1ncccc1C(=O)NCC(CC(=O)O)c1ccc(Cl)cc1` (stereo not shown) [CBK287264], the viability at 28.5 h, 10 µM was found to be 92.1%.

Take `CN(Cc1nc2c(s1)CCCC2)C(=O)CCn1nnc2ccccc21` [CBK306704]: the viability at 28.5 h, 10 µM came out at 107%.

On to `O=C(CCn1c(-c2cccnc2)cc2cccnc21)NC1CCCCC1` [CBK282647], for which the viability at 28.5 h, 10 µM was found to be 85.8%.

Turning to `Cn1c(=O)n(C)c2cc(CN3CCN(C4CCCC4)C(=O)C3)ccc21` [CBK281909], the viability at 28.5 h, 10 µM worked out at 97.1%.

Source of the values: article PMC12040169 (PLOS Biology, 2025).
